pKd, pKi: −log10 of the molar value.
Assays:
human orexin 2 receptor [1] = target: T1, human orexin 2 receptor (Homo sapiens, UniProt O43614); assay: Radioligand binding assay ([3H]-SB649868 competition), human orexin 2 receptor; conditions: radioligand [3H]-SB649868; read-out: Binding hOx2R Kd
T1 construct: expressed in transfected cells
T1 sequence (O43614 1-444): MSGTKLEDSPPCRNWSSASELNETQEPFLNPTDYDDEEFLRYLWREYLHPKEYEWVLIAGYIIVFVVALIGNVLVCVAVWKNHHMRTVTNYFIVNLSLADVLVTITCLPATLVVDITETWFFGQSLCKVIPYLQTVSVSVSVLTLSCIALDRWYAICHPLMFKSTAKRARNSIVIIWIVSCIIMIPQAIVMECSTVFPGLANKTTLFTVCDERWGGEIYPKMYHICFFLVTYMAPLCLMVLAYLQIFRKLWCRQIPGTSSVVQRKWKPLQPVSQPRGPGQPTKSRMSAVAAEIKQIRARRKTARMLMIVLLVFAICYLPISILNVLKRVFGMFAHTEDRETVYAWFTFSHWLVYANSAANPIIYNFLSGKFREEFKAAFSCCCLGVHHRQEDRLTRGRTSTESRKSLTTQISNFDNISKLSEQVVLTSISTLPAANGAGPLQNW
Description: (§1) Radioligand Binding Assay
(§2) For crude cell membrane preparations, cells (CHO, Chinese hamster ovary or HEK, human embryonic kidney) expressing human orexin 1 or human orexin 2 receptors, were washed with HEPES (10 mM, pH 7.5), scraped off the culture plates with the same buffer, and centrifuged at 4° C. for 5 min at 2500×g. The cell pellet was either stored at −80° C. or used directly. Before the experiments, cell membranes were re-suspended in binding assay buffer (10 mM HEPES, 0.5% (w/v) bovine serum albumin, pH 7.5) by homogenisation with a Polytron homogeniser at 50 Hz for 20 s. Cell membranes were also used as made available by commercial providers.
(§3) Bound radioactivity was measured, and data were analysed with the program XLFIT or Graphpad Prism. Protein concentration was determined according to the Bradford/BioRad Protein Assay Kit.
(§4) In competition experiments, cell homogenates (150 μl) were incubated in assay buffer (10 mM HEPES, pH 7.5, 0.5% (w/v) bovine serum albumin, 5 mM MgCl2, 1 mMCaCl2, and tween 0.05%) for 1 h at room temperature with about 1 nM of the radioligand [^3H]-SB649868, 66 Ci/mmole, 50 μl), and with various concentrations of compounds of the invention (50 μl) in triplicates; non-specific binding was determined in the presence of almorexant (10 μM). Reactions were terminated by vacuum filtration, 3 washes of ice cold wash buffer (Tris-HCl pH 7.4/10 mM, with NaCl 154 mM). Competition data is expressed in Table 1 as Kd [μM].

human orexin 1 receptor [2] = target: T2, human orexin 1 receptor (Homo sapiens, UniProt O43613); assay: Calcium accumulation in cells (FLIPR), antagonism of orexin A, human orexin 1 receptor; type: cell-based; conditions: for pKi: calcium accumulation, antagonism of orexin A, Cheng-Prusoff corrected, read-out: FLIPR hOx1R Ki; for inhibition at 10 µM: measured at a concentration of 10 μM of compound, read-out: FLIPR hOx1R % inhibition
T2 construct: expressed in transfected cells
T2 sequence (O43613 1-425): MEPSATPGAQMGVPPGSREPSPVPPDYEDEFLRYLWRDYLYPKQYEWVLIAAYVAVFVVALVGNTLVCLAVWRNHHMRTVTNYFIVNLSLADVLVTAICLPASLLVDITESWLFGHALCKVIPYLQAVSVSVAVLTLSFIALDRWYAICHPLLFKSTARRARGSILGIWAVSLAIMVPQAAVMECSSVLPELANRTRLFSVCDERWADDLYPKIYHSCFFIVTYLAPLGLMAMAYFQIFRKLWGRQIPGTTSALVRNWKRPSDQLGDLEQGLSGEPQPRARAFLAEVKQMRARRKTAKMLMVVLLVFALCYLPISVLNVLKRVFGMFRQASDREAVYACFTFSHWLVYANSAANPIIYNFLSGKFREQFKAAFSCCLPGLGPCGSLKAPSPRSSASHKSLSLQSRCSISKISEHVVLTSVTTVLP

human orexin 1 receptor [3] = target: T2, human orexin 1 receptor; assay: Radioligand binding assay ([3H]-SB649868 competition), human orexin 1 receptor; conditions: radioligand [3H]-SB649868; read-out: Binding hOx1R Kd
Description: as §1, §2, §3, §4

human orexin 2 receptor [4] = target: T1, human orexin 2 receptor; assay: Calcium accumulation in cells (FLIPR), antagonism of orexin A, human orexin 2 receptor; type: cell-based; conditions: calcium accumulation, antagonism of orexin A, Cheng-Prusoff corrected; read-out: FLIPR hOx2R Ki

SMILES | pKd (human orexin 2 receptor [1]) | pKi (human orexin 1 receptor [2]) | pKd (human orexin 1 receptor [3]) | pKi (human orexin 2 receptor [4]) | inhibition at 10 µM (human orexin 1 receptor [2]) [%]
COc1cccc(-c2ocnc2CN2CCNC3(CCN(c4nccc(C)n4)CC3)C2=O)c1 [Example 1.10, 4-((5-(3-Methoxyphenyl)oxazol-4-yl)methyl)-9-(4-methyl-pyrimidin-2-yl)-1,4,9-triazaspiro[5.5] undecan-5-one] | 6.79 | 5.58 | 5.40 | 7.08 | –
COc1cccc(-c2ocnc2CN2CCNC3(CCN(c4nc(C)cc(C#N)n4)CC3)C2=O)c1 [Example 1.11, 2-(4-((5-(3-Methoxyphenyl)oxazol-4-yl)methyl)-5-oxo-1,4,9-triazaspiro[5.5]undecan-9-yl)-6-methylpyrimidine-4-carbonitrile] | 7.43 | 5.58 | 5.65 | 8.00 | –
COc1cccc(-c2ocnc2CN2CCNC3(CCN(c4nccc(OC)n4)CC3)C2=O)c1 [Example 1.12, 4-((5-(3-Methoxyphenyl)oxazol-4-yl)methyl)-9-(4-methoxy-pyrimidin-2-yl)-1,4,9-triazaspiro[5.5] undecan-5-one] | 6.64 | 6.21 | 6.16 | 7.19 | –
COc1cccc(-c2ocnc2CN2CCNC3(CCN(c4nc(C)cc(OC)n4)CC3)C2=O)c1 [Example 1.13, 9-(4-Methoxy-6-methylpyrimidin-2-yl)-4-((5-(3-methoxyphenyl)oxazol-4-yl)methyl)-1,4,9-triazaspiro[5.5] undecan-5-one] | 6.70 | 7.43 | 7.09 | 8.52 | –
COc1cccc(-c2oc(C)nc2CN2CCNC3(CCN(c4nc(C)cc(C)n4)CC3)C2=O)c1 [Example 1.14, 9-(4,6-Dimethylpyrimidin-2-yl)-4-((5-(3-methoxyphenyl)-2-methyloxazol-4-yl)methyl)-1,4,9-triazaspiro[5.5] undecan-5-one] | 7.66 | 6.53 | 6.35 | 8.70 | –
COc1cccc(-c2oc(C)nc2CN2CCNC3(CCN(c4nccc(OC)n4)CC3)C2=O)c1 [Example 1.17, 4-((5-(3-Methoxyphenyl)-2-methyloxazol-4-yl)methyl)-9-(4-methoxypyrimidin-2-yl)-1,4,9-triazaspiro[5.5] undecan-5-one] | 6.60 | 5.68 | 5.63 | 7.04 | –
COc1cccc(-c2oc(C)nc2CN2CCNC3(CCN(c4nc(C)cc(OC)n4)CC3)C2=O)c1 [Example 1.18, 9-(4-Methoxy-6-methylpyrimidin-2-yl)-4-((5-(3-methoxyphenyl)-2-methyloxazol-4-yl)methyl)-1,4,9-triazaspiro[5.5] undecan-5-one] | 7.64 | 6.92 | 6.66 | 8.52 | –
COc1cccc(-c2sc(C)nc2CN2CCNC3(CCN(c4nc(C)cc(C)n4)CC3)C2=O)c1 [Example 1.24, 9-(4,6-Dimethyl-pyrimidin-2-yl)-4-((5-(3-methoxyphenyl)-2-methylthiazol-4-yl)methyl)-1,4,9-triazaspiro[5.5] undecan-5-one] | 7.46 | 6.12 | 6.03 | 8.00 | –
COc1cccc(-c2sc(C)nc2CN2CCNC3(CCN(c4nc(C)cc(OC)n4)CC3)C2=O)c1 [Example 1.26, 9-(4-Methoxy-6-methylpyrimidin-2-yl)-4-((5-(3-methoxyphenyl)-2-methylthiazol-4-yl)methyl)-1,4,9-triazaspiro[5.5] undecan-5-one] | 7.31 | 6.41 | 6.45 | 8.10 | –
COCc1cccc(-c2ocnc2CN2CCNC3(CCN(c4nc(C)cc(C)n4)CC3)C2=O)c1 [Example 1.27, 9-(4,6-Dimethyl-pyrimidin-2-yl)-4-((5-(3-(methoxymethyl)phenyl)oxazol-4-yl)methyl)-1,4,9-triazaspiro[5.5] undecan-5-one] | 6.85 | – | 5.29 | 7.03 | 34
COCc1cccc(-c2ocnc2CN2CCNC3(CCN(c4nc(C)cc(OC)n4)CC3)C2=O)c1 [Example 1.29, 9-(4-Methoxy-6-methylpyrimidin-2-yl)-4-((5-(3-(methoxymethyl)phenyl)oxazol-4-yl)methyl)-1,4,9-triazaspiro[5.5] undecan-5-one] | 7.00 | 5.84 | 5.88 | 7.12 | –
COCc1cccc(-c2oc(C)nc2CN2CCNC3(CCN(c4nc(C)cc(C)n4)CC3)C2=O)c1 [Example 1.30, 9-(4,6-Dimethyl-pyrimidin-2-yl)-4-((5-(3-(methoxymethyl)phenyl)-2-methyl-oxazol-4-yl)methyl)-1,4,9-triazaspiro[5.5] undecan-5-one] | 6.94 | – | 5.67 | 7.54 | 51
COc1cccc(-c2cn(C)nc2CN2CCNC3(CCN(c4nc(C)cc(C)n4)CC3)C2=O)c1 [Example 1.33, 9-(4,6-Dimethyl-pyrimidin-2-yl)-4-((4-(3-methoxyphenyl)-1-methyl-1H-pyrazol-3-yl)methyl)-1,4,9-triazaspiro[5.5] undecan-5-one] | 7.38 | 5.82 | 5.79 | 8.22 | –
COc1ccc2[nH]cc(CN3CCNC4(CCN(c5nc(C)cc(C)n5)CC4)C3=O)c2c1 [Example 1.34, 9-(4,6-Dimethyl-pyrimidin-2-yl)-4-((5-methoxy-1H-indol-3-yl)methyl)-1,4,9-triazaspiro[5.5] undecan-5-one] | 8.40 | 6.31 | 6.63 | 9.00 | –
COc1cccc(-c2n[nH]nc2CN2CCNC3(CCN(c4nc(C)cc(C)n4)CC3)C2=O)c1 [Example 1.39, 9-(4,6-Dimethyl-pyrimidin-2-yl)-4-((5-(3-methoxy-phenyl)-2H-1,2,3-triazol-4-yl)methyl)-1,4,9-triazaspiro[5.5] undecan-5-one] | 7.89 | 6.52 | 6.64 | 8.70 | –
Cc1cc(C#N)nc(N2CCC3(CC2)NCCN(Cc2c[nH]c4ccccc24)C3=O)n1 [Example 1.40, 2-(4-((1H-Indol-3-yl)methyl)-5-oxo-1,4,9-triazaspiro[5.5]undecan-9-yl)-6-methylpyrimidine-4-carbonitrile] | 7.10 | 5.55 | 5.28 | 7.70 | –
Cc1cc(C)nc(N2CCC3(CC2)NCCN(Cc2nn(C)cc2-c2cccc(C(F)(F)F)c2)C3=O)n1 [Example 1.41, 9-(4,6-Dimethyl-pyrimidin-2-yl)-4-((1-methyl-4-(3-(trifluoromethyl)phenyl)-1H-pyrazol-3-yl)methyl)-1,4,9-triazaspiro[5.5] undecan-5-one] | 6.74 | 5.80 | 5.50 | 7.80 | –
Cc1cc(C)nc(N2CCC3(CC2)NCCN(Cc2nn(C)cc2-c2cccc(Cl)c2)C3=O)n1 [Example 1.42, 4-((4-(3-Chlorophenyl)-1-methyl-1H-pyrazol-3-yl)methyl)-9-(4,6-dimethyl-pyrimidin-2-yl)-1,4,9-triazaspiro[5.5] undecan-5-one] | 6.41 | 5.48 | 5.19 | 7.08 | –
